Results published in patent US20180171411A1, “GFRalpha1 AS A BIOMARKER FOR CISPLATIN-INDUCED CHEMORESISTANCE AND METASTASIS” (THE BOARD OF REGENTS OF THE UNIVERSITY OF TEXAS SYSTEM, priority 2015, published 2018).

Columns and labels:
Format in all cases: cell-based, human
[1] = test system: LC3-II in GFRα1-overexpressing MG-63 cells; assay: Immunoblot of LC3-II in GFRα1-overexpressing cells; conditions: 3-MA (10 μM) or Baf (100 nM)
Method: (§1) FIG. 3. GFRα1-induced autophagy enhances the chemoresistance of osteosarcoma cells induced by cisplatin. (a) Control and GFRα1-deficient MG-63 cells were transiently transfected with a mRFP-GFP tandem fluorescent-tagged LC3 (mRFP-GFP-LC3) vector and then treated with cisplatin (20μM) for 24 hr. Left, representative images of RFP-LC3 and GFP-LC3 puncta. Scale bar, 20 μm. Right, quantitative analysis of the number of yellow puncta and the number of RFP-LC3 puncta in the combined images. The values are represented as a mean±s.d.m. (n=3). ** denotes p<0.05 by t-test. (b) Control and GFRα1-deficient MG-63 cells were treated with cisplatin (20 μM) for 24 hr and then stained with acridine orange. […] Bottom, quantitative analysis of the number of AVOs. […] (c) Control and GFRα1-deficient MG-63 cells were treated with cisplatin (20 μM) for 24 hr and then analyzed by TEM. Top, representative images of autophagic vacuoles (yellow arrows) detected after cisplatin treatment in control MG-63 cells. […] Bottom, quantitative analysis of the number of autophagic vacuoles. […] (e) Quantitative analysis of the number of yellow puncta and the number of RFP-LC3 puncta in control and GFRα1-overexpressing MG-63 cells. […] Bottom, quantitative analysis of the number of AVOs. […] (h) Control and GFRα1-overexpressing MG-63 cells were treated with cisplatin (20 μM) for 24 hr and then analyzed by TEM. […]

[2] = test system: MG-63 cells; assay: Acridine orange staining of acidic vesicular organelles (AVOs); conditions: control MG-63 cells; cisplatin 20 μM, 24 hr
Method: as §1

[3] = test system: APE1 expression in osteosarcoma cells; assay: Immunoblot of APE1 expression after cisplatin; conditions: different concentrations of cisplatin, 24 h
Method: FIG. 10. GFRα1-mediated chemoresistance of osteosarcoma cells is independent of APE and RET signaling. (a) Immunoblot analysis of MG-63 cell lysates with antibodies specific for APE, RET and β-actin. MG-63 and U-2 OS cells were treated with different concentrations of cisplatin for 24 h. The cell lysates of GDNF-treated MIA PaCa-2 were used as positive controls for APE and RET expression.
Immunoblotting. Cells were washed with PBS and lysed in RIPA Buffer (Pierce, Rockford, Ill.). The protein content was determined using a dye-binding microassay (Bio-Rad, Hercules, Calif.), and 10-50 μg protein per lane was electrophoresed on 4-12% SDS polyacrylamide gels. Proteins were blotted onto Hybond ECL membranes (Amersham Pharmacia Biotech, Piscataway, N.J.). Two protein ladders were used for molecular weight determination (GenDEPOT, Barker, Tex.). The blotted proteins were detected using an enhanced chemiluminescence detection system (iNtRON, Seoul, Korea). Data were quantified and analyzed with Image-J software.

[4] = test system: MG-63 cells; assay: Transmission electron microscopy of autophagic vacuoles; conditions: control MG-63 cells; cisplatin 20 μM, 24 hr
Method: as §1

| Structure (SMILES) | level of LC3-II expression [1] | AVO-positive cells [2] | level of APE1 expression [3] | number of autophagic vacuoles per cell [4] |
| --- | --- | --- | --- | --- |
| Cn1cnc(N)c2ncnc1-2 [3-MA, 3-methyladenine] | reduced | – | – | – |
| N.N.[Cl][Pt][Cl] [cisplatin, Cis-Diamineplatinum(II) dichloride] | – | significantly increased | not affected | markedly increased |
